Test results: patent US10039761B2, “Co-crystals and pharmaceutical compositions comprising the same” (Vertex Pharmaceuticals Incorporated, priority 2013, dated 2018)
“Also recorded” adds a separate entry of the source.

Assays:
[1] = Body weight in OD26749 xenograft studies; format: in vivo, nude mice
Procedure: The in vivo efficacies of Compounds (1) and (2) in combination with whole body IR were examined in the OD26749 primary NSCLC (non-small cell lung cancer) and the OE-19 GEJ cell line xenograft models. In these studies, Compounds (1) and (2) were formulated with 16% captisol/1% PVP/1% HPMC E5 pH2.
The in vivo efficacy of Compound (1) was evaluated in the primary OD26749 NSCLC subcutaneous xenograft model. […] Efficacy was evaluated using a regimen in which 2-Gy whole body IR was administered twice, one week apart. Compound (1) was administered PO (tid at 0, 3, and 7 h) at 100 mg/kg alone or with a single 2 Gy dose of whole body IR at 3.25 h. Seven days later, the same regimens were repeated. Compound (1) in combination with 2 Gy whole body IR induced significant tumor regression (% T/Ti of −75; P<0.01) compared to IR alone.
The efficacies of Compounds (1) and (2) in combination with whole body IR (2 Gy) were evaluated in the OD26749 primary NSCLC xenograft model at a Compound (1) dose level of 100 mg/kg PO bid (0 and 4 h) and Compound (2) dose levels of 50 mg/kg and 100 mg/kg PO bid (0 and 4 h). Two cycles of whole body IR (2 Gy) were given 15 min after the first compound administration (0.25 hour). Control animals were administered vehicle PO bid (0 and 4 h). Two cycles of treatment were performed on Day 0 and Day 7.

A549 [2] = assay: Combination with genotoxic agents, cell viability (Mixtures Blend); format: cell-based; design: key to Synergy or Antagonism, Plus Radiation (2 Gy): Plus = enhanced effect of radiation; *: Viability reduction driven predominantly by Compound (1) plus radiation
Procedure: The cell-based experiments and assays were performed with either molecule but not always with both. Compounds (1) and (2) were generally very similar in those assays and experiments. Analysis of the combination experiments was performed using two methods: the Bliss Additivity model and the Mixtures Blend method to determine the degree of synergy, additivity, or antagonism. In the Bliss method, a matrix of Bliss scores was generated for each cell line and treatment, and a sum of the Bliss values over the range of combination concentrations tested was calculated. […] Larger average Bliss values indicate greater confidence in reporting synergy, and smaller scores indicate greater confidence in reporting antagonism. In the Mixtures Blend method combinants were added in a range of optimal ratios using design of experiment (DOE) software (DX-8 from STAT-EASE); the cells were irradiated with 2 Gy as required. Synergy was determined using statistical analysis of the data (ANOVA) to indicate linear (additivity) or statistically significant (p<0.1) non-linear (antagonism or synergy) mixes of the combinants. The following SOC agents were tested in double combinations with Compound (1): etoposide (a topoisomerase inhibitor that induces DSBs), cisplatin (DNA cross-linker), carboplatin (DNA cross-linker), fluorouracil (5-FU, antimetabolite that inhibits thymidylate synthase), paclitaxel (mitotic inhibitor that binds to tubulin), cetuximab (EGFR monoclonal antibody), and radiation. […] These findings were confirmed using the Bliss Additivity model (Table 21). […] While there is not total agreement in the various lines tested, (as detailed in the other sections) the majority agree and the conclusions arrived at are common to each. […] The cancer cell lines in Table 19 indicate: ESO26-gastroesophageal junction cancer, OE19-gastroesophageal junction cancer, […]549-lung cancer, colo205-colon cancer, H460-lung cancer, H2009-lung cancer, FaDu-pharynx cancer, Miapaca2-pancreatic cancer, HFL1-human fetal lung fibroblast.

[3] = system: panel of 60 cancer cell lines; assay: Double combinations in 60 cancer cell line panel (ATPLite, Bliss); format: cell-based; conditions: 144 hours
Procedure: The cell-based experiments and assays were performed with either molecule but not always with both. Compounds (1) and (2) were generally very similar in those assays and experiments. Analysis of the combination experiments was performed using two methods: the Bliss Additivity model and the Mixtures Blend method to determine the degree of synergy, additivity, or antagonism. In the Bliss method, a matrix of Bliss scores was generated for each cell line and treatment, and a sum of the Bliss values over the range of combination concentrations tested was calculated. […] Larger average Bliss values indicate greater confidence in reporting synergy, and smaller scores indicate greater confidence in reporting antagonism. In the Mixtures Blend method combinants were added in a range of optimal ratios using design of experiment (DOE) software (DX-8 from STAT-EASE); the cells were irradiated with 2 Gy as required. Synergy was determined using statistical analysis of the data (ANOVA) to indicate linear (additivity) or statistically significant (p<0.1) non-linear (antagonism or synergy) mixes of the combinants. Compound (2) was tested against a panel of 60 cancer cell lines (see Table 16) alone and in combination with a panel of cytotoxic and non-cytotoxic SOC agents. The 60 cancer cell lines represent lines derived from breast cancer, prostate cancer, lung cancer, acute myeloid leukemia (AML), myeloma and other cancers. Cells were removed from liquid nitrogen storage, thawed and expanded in appropriate growth media. Once expanded, cells were seeded in 384-well tissue culture treated plates at 500 cells per well. […] At the end of either 0 hours or 144 hours, cell status was analyzed using ATPLite (Perkin Elmer) to assess the biological response of cells to drug combinations.

[4] = system: triple-negative breast cancer cell lines; assay: Doxorubicin/epirubicin combination, all breast cancer lines tested; format: cell-based; conditions: doxorubicin and Compound (2)
Procedure: (§1) The cell-based experiments and assays were performed with either molecule but not always with both. Compounds (1) and (2) were generally very similar in those assays and experiments. Analysis of the combination experiments was performed using two methods: the Bliss Additivity model and the Mixtures Blend method to determine the degree of synergy, additivity, or antagonism. In the Bliss method, a matrix of Bliss scores was generated for each cell line and treatment, and a sum of the Bliss values over the range of combination concentrations tested was calculated. […] Larger average Bliss values indicate greater confidence in reporting synergy, and smaller scores indicate greater confidence in reporting antagonism. In the Mixtures Blend method combinants were added in a range of optimal ratios using design of experiment (DOE) software (DX-8 from STAT-EASE); the cells were irradiated with 2 Gy as required. Synergy was determined using statistical analysis of the data (ANOVA) to indicate linear (additivity) or statistically significant (p<0.1) non-linear (antagonism or synergy) mixes of the combinants.

A549 [5] = assay: Combination with etoposide, viability (Bliss analysis); format: cell-based; conditions: Compound (2) with etoposide; n = 1
Procedure: as §1

ESO26 = assay: as above; format: cell-based; conditions: Compound (2) with etoposide; n = 3
Procedure: as §1

In the case of `CNC(=O)c1ccnc2c([C@H](C)CNc3cc(-c4cnc(C)nc4)ncn3)cccc12` [Compound (1), (S)-N-methyl-8-(1-((2′-methyl-[4,5′-bipyrimidin]-6-yl)amino)propan-2-yl)quinoline-4-carboxamide], the “Max. body wt loss (%)” value ([1]; PO 25 mg/kg bid (0, 4 h), 2 Gy IR ([…]) q7dx2, Day 8) is reported as −7.70%, the “Max. body wt loss (%)” value ([1]; PO 50 mg/kg bid (0, 4 h), 2 Gy IR ([…]) q7dx2, Day 8) is reported as −5.50% and the “Max. body wt loss (%)” value ([1]; PO 100 mg/kg bid (0, 4 h), 2 Gy IR ([…]) q7dx2, Day 8) is reported as −3.70%. For the same molecule, the “Max. body wt loss (%)” value ([1]; PO 100 mg/kg tid (0, 3, 7 h) q7dx2, no IR) was “weight gain”, the “Max. body wt loss (%)” value ([1]; PO 100 mg/kg tid (0, 3, 7 h) qdx1, 2 Gy qdx1 (3.25 h), Day 2) was −9.70% and the “Max. body wt loss (%)” value ([1]; PO 100 mg/kg tid (0, 3, 7 h) qdx1, no IR, Day 2) was −2.40%. For the same molecule, the “Max. body wt loss (%)” value ([1]; PO 200 mg/kg qd, 2 Gy IR ([…]) q7dx2, Day 1) was −6.10%, the “Synergy or Antagonism, No Radiation” value (A549 [2]; no agent ticked) was “Synergy” and the “Synergy or Antagonism, Plus Radiation (2 Gy)” value (“Synergy or Antagonism … (2 Gy)” below) (A549 [2]; no agent ticked) was “Plus”. The “Synergy or Antagonism, No Radiation” value (A549 [2]; with Cetuximab) was “Additivity”, the “Synergy or Antagonism … (2 Gy)” value (A549 [2]; with Cetuximab) was “Additivity, Plus” and the “Synergy or Antagonism, No Radiation” value (A549 [2]; with Cisplatin) was “Additivity”. For the same molecule, the “Synergy or Antagonism, No Radiation” value (A549 [2]; with Cisplatin and Etoposide) was “Strong Synergy”, the “Synergy or Antagonism … (2 Gy)” value (A549 [2]; with Cisplatin and Etoposide) was “Strong Synergy, Plus” and the “Synergy or Antagonism, No Radiation” value (A549 [2]; with Cisplatin and Paclitaxel) was “additive; also recorded: Additivity”. For the same molecule, the “Synergy or Antagonism … (2 Gy)” value (A549 [2]; with Cisplatin and Paclitaxel) was “Synergy, Plus”, the “Synergy or Antagonism, No Radiation” value (A549 [2]; with Etoposide) was “Strong Synergy” and the “Synergy or Antagonism, No Radiation” value (A549 [2]; with Paclitaxel) was “Antagonism”.
In the case of `[2H]c1nc(C)nc([2H])c1-c1cc(NC[C@@H](C)c2cccc3c(C(=O)NC)ccnc23)ncn1` [Compound (2), (S)-N-methyl-8-(1-((2′-methyl-4′,6′-dideutero-[4,5′-bipyrimidin]-6-yl)amino)propan-2-yl)quinoline-4-carboxamide], the “Bliss analysis, combination effect” value ([3]; in combination with bleomycin) is reported as “strong synergy (greater than 10 indicates strong synergy)”, the “Bliss analysis, combination effect” value ([3]; in combination with doxorubicin) is reported as “strong synergy (greater than 10 indicates strong synergy)” and the “Bliss analysis, combination effect” value ([3]; in combination with etoposide) is reported as “strong synergy (greater than 10 indicates strong synergy)”. The “shift in IC50 of the combination compared to doxorubicin alone” value [4] was over 3 fold, the “Average Bliss score” value (A549 [5]) was 27.3 (n = 1) and the “Average Bliss score” value (ESO26) was 43.2 ± 6.5 (n = 3).
